Data taken from patent publication US20150305367A1, “FROZEN CONFECTION” (CONOPCO, INC., D/B/A UNILEVER, priority 2012, published 2015).

Tests used:
recombinant human MAO-B = target: T1, recombinant human MAO-B (Homo sapiens, UniProt P27338); assay: MAO-Glo chemiluminescent MAO-B inhibition assay; assay type: biochemical; settings: for MAO-B inhibition (Yes/No): overall verdict over 1, 10 and 100 μM; for inhibition at 1 µM: test concentration 1 μM; for inhibition at 1 µM / inhibition at 10 µM / inhibition at 100 µM: mean ± standard deviation, triplicate, 90 min incubation; for inhibition at 10 µM: test concentration 10 μM; for inhibition at 100 µM: test concentration 100 μM;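 on all read-outs here: MAO-B from microsomes of baculovirus-infected insect cells, luciferin-based luminescence read-out, inhibition relative to enzyme activity with DMSO vehicle alone and no inhibitor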
T1 construct: purchased Sigma-Aldrich; host or cells: baculovirus-infected insect cells (microsomes)
T1 sequence (P27338 1-520): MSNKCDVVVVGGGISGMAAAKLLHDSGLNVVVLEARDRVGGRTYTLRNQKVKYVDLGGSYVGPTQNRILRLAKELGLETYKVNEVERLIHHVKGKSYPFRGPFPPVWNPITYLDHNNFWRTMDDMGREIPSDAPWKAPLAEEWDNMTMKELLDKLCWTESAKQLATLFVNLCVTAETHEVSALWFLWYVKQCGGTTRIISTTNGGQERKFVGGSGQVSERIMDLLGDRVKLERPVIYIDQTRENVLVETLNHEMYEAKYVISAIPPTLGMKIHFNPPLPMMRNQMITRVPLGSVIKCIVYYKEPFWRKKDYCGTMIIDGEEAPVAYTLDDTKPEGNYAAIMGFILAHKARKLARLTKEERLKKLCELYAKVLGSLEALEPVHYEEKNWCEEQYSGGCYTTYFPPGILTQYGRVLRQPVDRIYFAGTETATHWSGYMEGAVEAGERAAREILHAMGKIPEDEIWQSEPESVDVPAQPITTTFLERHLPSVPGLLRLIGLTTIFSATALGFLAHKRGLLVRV

[1] = measured in vivo in rat brain; cited from earlier work

Row | SMILES | MAO-B inhibition (Yes/No) (recombinant human MAO-B) | inhibition at 1 µM (recombinant human MAO-B) [%] | inhibition at 10 µM (recombinant human MAO-B) [%] | inhibition at 100 µM (recombinant human MAO-B) [%] | endogenous pool half-life [1]
1 | COc1ccccc1O [2-Methoxyphenol] | No | 0 | 0 | 0 | 
2 | O=Cc1ccc(O)c(O)c1 [3,4-Dihydroxybenzaldehyde] | No | 0 | 4 ± 5.1 | 9 ± 3.6 | 
3 | CC(=O)C(C)O (stereo not drawn) [3-Hydroxy-2-butanone] | No | 11 ± 4.2 | 6 ± 5.2 | 7 ± 3.4 | 
4 | CC1=C(O)C(=O)C(C)O1 (stereo not drawn) [4-Hydroxy-2,5-dimethyl-3(2H)-furanone] | No | 0 | 9 ± 3.3 | 7 ± 11.7 | 
5 | O=Cc1ccc(O)cc1 [4-Hydroxybenzaldehyde] | Yes | 10 ± 3.2 | 6 ± 4.7 | 27 ± 5.1 | 
6 | O=C(O)c1ccc(O)cc1 [4-Hydroxybenzoic acid] | No | 13 ± 3.2 | 9 ± 5.2 | 11 ± 5.7 | 
7 | OCc1ccc(O)cc1 [4-Hydroxybenzyl alcohol] | No | 1 ± 7.9 | 0 | 6 ± 8.1 | 
8 | COc1ccc(C=O)cc1 [4-Methoxybenzaldehyde] | Yes | 0 | 11 ± 3.8 | 75 ± 1.9 | 
9 | O=C(/C=C/c1ccccc1)OCc1ccccc1 [Benzyl cinnamate] | Yes | 10 ± 6.4 | 63 ± 3.1 | 100 | 
10 | O=C(O)/C=C/c1ccc(O)cc1 [Coumaric acid] |  | 11 ± 4.2 | 16 ± 2.8 | 17 ± 7.3 | 
11 | CCOc1cc(C=O)ccc1O [Ethyl vanillin] | No | 0 | 0 | 4 ± 5.3 | 
12 | C=CCc1ccc(O)c(OC)c1 [Eugenol] | No | 0 | 4 ± 4.6 | 0 | 
13 | COc1cc(/C=C/C(=O)O)ccc1O [Ferulic acid] | No | 4 ± 1.2 | 9 ± 1.7 | 4 ± 7 | 
14 | O=Cc1ccc2c(c1)OCO2 [Piperonal] | Yes | 10 ± 2.9 | 53 ± 4 | 100 | 
15 | COc1cc(C(=O)O)ccc1O [Vanillic acid] | No | 6 ± 4.2 | 5 ± 7.3 | 11 ± 3.3 | 
16 | COc1cc(C=O)ccc1O [Vanillin] |  |  |  | 19 ± 5.6 | 
17 | COc1cc(CO)ccc1O [Vanillyl Alcohol] | No | 2 ± 4 | 9 ± 3 | 6 ± 5.1 | 
18 | COc1ccc(C=O)cc1OC [Veratraldehyde] | No | 1 ± 1.5 | 2 ± 6.6 | 0 | 
19 | NCCc1ccccc1 [phenylethylamine, Phenylethylamine] |  |  |  |  | approximately 30 s
